The values that follow come from patent publication US9533985B2, “Sulfonamide derivative and medicinal use thereof” (EA Pharma Co., Ltd., priority 2012, dated 2017).

Structures are written as SMILES.

This test addresses α4β7 integrin (Homo sapiens (Human), UniProt P13612+P26010). The test can be described thus: MAdCAM-1/α4β7 integrin binding inhibitory activity evaluation test in the presence of serum (2). The test is classed as cell-based. To be noted: RPMI-8866 cells binding to mouse MAdCAM-1/Fc, same manner as Test (3), read-out: α4β7 Rank of activity with serum added. Here is the method:
The ability of test substances to inhibit the binding of a human B cell line, RPMI-8866, which is known to express α4β7 integrin, to MAdCAM-1 was measured.
To 96-well microtiter plates, recombinant mouse MAdCAM-1/Fc (R&D systems) solution (1 μg/mL) diluted with buffer A (carbonate buffer, pH 9.6) was added at 50 μL/well, followed by incubation at 4° C. overnight. After washing once with PBS, Block Ace (Snow Brand Milk Products Company, Limited) was added at 150 μL/well, followed by incubation at room temperature for 2 hours. After removal, washing was conducted once with PBS.
100 μL of each test substance diluted with a binding buffer (DMEM containing 40 mM HEPES, 0.2% BSA, and 4 mM MnCl2) to various concentrations and 100 μL of RPMI-8866 cells (2×10^6 cell/mL) were added to plates coated with MAdCAM-1/Fc (5×10^5 cells/well) with human serum being contained at a final concentration of 50%, followed by incubation at 30° C. for 15 minutes to 60 minutes. After the cells were bound to each well, unbound cells were removed by washing with PBS. To the plates, buffer C (PBS containing 1.5% Triton X-100) was added at 50 μL/well to lyse the bound RPMI-8866 cells. To 30 μL of the cell lysate, 30 μL of Substrate Buffer (Promega, CytoTox 96 Non-Radioactive Cytotoxicity Assay) was added, and the reaction was allowed to proceed at room temperature in a dark place for 30 minutes. To each well, 30 μL of Stop Solution (Promega, CytoTox 96 Non-Radioactive Cytotoxicity Assay) was added, and the absorbance at 490 nm was measured by using a plate reader. Here, by the obtained absorbance, the activity of the lactate dehydrogenase (LDH) dissolved into the supernatant of each well was detected. In other words, the absorbance was proportional to the number of the RPMI-8866 cells bound to MAdCAM-1 and remaining on the plate. The test was duplicated. The binding ratios of the cells at various concentrations were determined, with the absorbance of a well containing no test substance taken as 100%. Then, the concentration IC50, at which 50% binding inhibition was achieved, was calculated.
The MAdCAM-1/α4β7 integrin binding inhibitory activity in the presence of serum was measured in the same manner as in Test (3) described above. […] The VCAM-1/α4β1 integrin binding inhibitory activity evaluation test and the MAdCAM-1/α4β7 integrin binding inhibitory activity evaluation test were carried out according to the methods described in Tests (1) and (2) described above.

α4β7 integrin, sequence (P13612 34-1032): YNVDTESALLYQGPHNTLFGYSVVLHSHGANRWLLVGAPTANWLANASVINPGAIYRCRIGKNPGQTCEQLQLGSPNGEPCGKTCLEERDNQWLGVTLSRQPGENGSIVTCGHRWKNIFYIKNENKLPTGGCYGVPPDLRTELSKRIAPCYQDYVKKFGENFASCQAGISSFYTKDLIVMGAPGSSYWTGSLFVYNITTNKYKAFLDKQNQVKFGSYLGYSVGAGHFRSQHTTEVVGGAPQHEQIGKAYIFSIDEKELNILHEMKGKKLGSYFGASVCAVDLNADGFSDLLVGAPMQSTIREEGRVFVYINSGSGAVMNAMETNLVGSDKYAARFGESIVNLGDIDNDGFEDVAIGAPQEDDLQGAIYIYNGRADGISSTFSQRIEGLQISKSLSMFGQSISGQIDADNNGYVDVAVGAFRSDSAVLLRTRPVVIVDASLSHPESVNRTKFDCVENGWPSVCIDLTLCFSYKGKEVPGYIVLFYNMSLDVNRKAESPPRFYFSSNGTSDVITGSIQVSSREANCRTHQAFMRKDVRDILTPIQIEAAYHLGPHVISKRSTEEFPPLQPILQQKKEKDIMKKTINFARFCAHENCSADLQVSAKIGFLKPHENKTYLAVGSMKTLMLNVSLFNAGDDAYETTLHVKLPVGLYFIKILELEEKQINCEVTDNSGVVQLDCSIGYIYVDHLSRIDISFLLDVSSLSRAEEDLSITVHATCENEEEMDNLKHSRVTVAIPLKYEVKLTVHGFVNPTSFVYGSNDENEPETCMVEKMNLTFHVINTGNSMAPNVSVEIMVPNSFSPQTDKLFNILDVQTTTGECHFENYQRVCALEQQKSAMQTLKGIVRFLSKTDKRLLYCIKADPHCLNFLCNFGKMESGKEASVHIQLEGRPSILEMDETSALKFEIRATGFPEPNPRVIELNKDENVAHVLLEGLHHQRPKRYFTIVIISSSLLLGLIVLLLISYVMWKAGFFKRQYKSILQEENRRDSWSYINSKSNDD
α4β7 integrin, sequence (P26010 20-798): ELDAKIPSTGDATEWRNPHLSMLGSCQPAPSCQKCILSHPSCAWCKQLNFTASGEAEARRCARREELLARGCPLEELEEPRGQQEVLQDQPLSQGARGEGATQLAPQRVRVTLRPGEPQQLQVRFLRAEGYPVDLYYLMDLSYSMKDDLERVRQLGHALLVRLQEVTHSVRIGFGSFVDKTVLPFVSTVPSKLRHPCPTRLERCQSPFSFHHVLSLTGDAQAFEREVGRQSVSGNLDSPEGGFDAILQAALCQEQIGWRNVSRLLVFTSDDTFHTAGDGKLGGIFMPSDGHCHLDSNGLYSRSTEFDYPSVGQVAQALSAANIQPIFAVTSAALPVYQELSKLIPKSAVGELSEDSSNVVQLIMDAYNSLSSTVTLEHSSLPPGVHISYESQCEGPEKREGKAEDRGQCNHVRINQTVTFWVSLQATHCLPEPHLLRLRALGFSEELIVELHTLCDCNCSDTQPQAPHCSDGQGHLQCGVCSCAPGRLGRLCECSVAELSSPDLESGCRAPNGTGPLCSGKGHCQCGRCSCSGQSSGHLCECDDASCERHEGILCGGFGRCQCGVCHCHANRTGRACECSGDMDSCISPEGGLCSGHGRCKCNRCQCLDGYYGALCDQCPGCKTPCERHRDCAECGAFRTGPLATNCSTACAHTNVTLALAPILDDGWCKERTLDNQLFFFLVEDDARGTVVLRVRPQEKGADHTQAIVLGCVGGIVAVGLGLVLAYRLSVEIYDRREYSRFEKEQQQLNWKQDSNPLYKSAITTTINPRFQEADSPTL

Turning to `Cn1c(=O)n(-c2ccc(C[C@H](NC(=O)c3ncc(NS(=O)(=O)c4ccco4)cc3F)C(=O)O)cc2)c(=O)c2ccncc21` [Example 183, N-({3-Fluoro-5-[(2-furylsulfonyl)amino]pyridin-2-yl}carbonyl)-4-(1-methyl-2,4-dioxo-1,4-dihydropyrido[3,4-d]pyrimidin-3(2H)-yl)-L-phenylalanine], the IC50 is 10 to 50 nM.
In the case of `Cc1cn(-c2ccc(S(=O)(=O)Nc3cc(F)c(C(=O)N[C@@H](Cc4ccc(-n5c(=O)c6ccncc6n(C)c5=O)cn4)C(=O)O)cc3F)cc2)nn1` [Example 234, N-[2,5-Difluoro-4-({[4-(4-methyl-1H-1,2,3-triazol-1-yl)phenyl]sulfonyl}amino)benzoyl]-3-[5-(1-methyl-2,4-dioxo-1,4-dihydropyrido[3,4-d]pyrimidin-3(2H)-yl)pyridin-2-yl]-L-alanine], the IC50 was in the range of 10 to 50 nM.
Next, `CCc1ncc(-c2ccc(S(=O)(=O)Nc3cc(F)c(C(=O)N[C@@H](Cc4ccc(-n5c(=O)c6ccncc6n(C)c5=O)cc4)C(=O)O)cc3F)cc2)cn1` [Example 237, N-[4-({[4-(2-Ethylpyrimidin-5-yl)phenyl]sulfonyl}amino)-2,5-difluorobenzoyl]-4-(1-methyl-2,4-dioxo-1,4-dihydropyrido[3,4-d]pyrimidin-3(2H)-yl)-L-phenylalanine]: 10 to 50 nM; `CNCc1ccc(S(=O)(=O)Nc2ccc(C(=O)N[C@@H](Cc3ccc(-n4c(=O)c5ccncc5n(C)c4=O)cn3)C(=O)O)c(F)c2)cc1` [Example 177, N-{2-Fluoro-4-[({4-[(methylamino)methyl]phenyl}sulfonyl)amino]benzoyl}-3-[5-(1-methyl-2,4-dioxo-1,4-dihydropyrido[3,4-d]pyrimidin-3(2H)-yl)pyridin-2-yl]-L-alanine]: 10 to 50 nM.
With `CCOc1ccccc1S(=O)(=O)Nc1cc(F)c(C(=O)N[C@@H](Cc2ccc(-n3c(=O)c4ccncc4n(C)c3=O)cc2)C(=O)O)c(F)c1` [Example 214, N-(4-{[(2-Ethoxyphenyl)sulfonyl]amino}-2,6-difluorobenzoyl)-4-(1-methyl-2,4-dioxo-1,4-dihydropyrido[3,4-d]pyrimidin-3(2H)-yl)-L-phenylalanine] the figure was 10 to 50 nM; with `COc1cc2c(=O)n(-c3ccc(C[C@H](NC(=O)c4ccc(NS(=O)(=O)c5ccco5)cc4F)C(=O)O)cc3)c(=O)n(C)c2cn1` [Example 147, N-{2-Fluoro-4-[(2-furylsulfonyl)amino]benzoyl}-4-(6-methoxy-1-methyl-2,4-dioxo-1,4-dihydropyrido[3,4-d]pyrimidin-3(2H)-yl)-L-phenylalanine], 10 to 50 nM; with `Cn1c(=O)n(-c2ccc(C[C@H](NC(=O)c3cc(F)c(NS(=O)(=O)c4ccc(-n5cncn5)cc4)cc3F)C(=O)O)cn2)c(=O)c2ccncc21` [Example 221, N-[2,5-Difluoro-4-({[4-(1H-1,2,4-triazol-1-yl)phenyl]sulfonyl}amino)benzoyl]-3-[6-(1-methyl-2,4-dioxo-1,4-dihydropyrido[3,4-d]pyrimidin-3(2H)-yl)pyridin-3-yl]-L-alanine], 10 to 50 nM.
With `Cn1c(=O)n(-c2ccc(C[C@H](NC(=O)c3cc(F)c(NS(=O)(=O)c4ccc5c(c4)C(=O)OC5)cc3F)C(=O)O)nc2)c(=O)c2ccncc21` [Example 233, N-(2,5-Difluoro-4-{[(3-oxo-1,3-dihydro-2-benzofuran-5-yl)sulfonyl]amino}benzoyl)-3-[5-(1-methyl-2,4-dioxo-1,4-dihydropyrido[3,4-d]pyrimidin-3(2H)-yl)pyridin-2-yl]-L-alanine] the figure was 50 to 200 nM; with `CCOc1cc(-c2ncccn2)ccc1S(=O)(=O)Nc1cc(F)c(C(=O)N[C@@H](Cc2ccc(-n3c(=O)c4ccncc4n(C)c3=O)cn2)C(=O)O)c(F)c1` [Example 231, N-(4-{[(2-Ethoxy-4-pyrimidin-2-ylphenyl)sulfonyl]amino}-2,6-difluorobenzoyl)-3-[5-(1-methyl-2,4-dioxo-1,4-dihydropyrido[3,4-d]pyrimidin-3(2H)-yl)pyridin-2-yl]-L-alanine], at most 10 nM; with `Cn1c(=O)n(-c2ccc(C[C@H](NC(=O)c3cc(F)c(NS(=O)(=O)c4ccco4)cc3F)C(=O)O)nc2)c(=O)c2ccncc21` [Example 140, N-{2,5-Difluoro-4-[(2-furylsulfonyl)amino]benzoyl}-3-[5-(1-methyl-2,4-dioxo-1,4-dihydropyrido[3,4-d]pyrimidin-3(2H)-yl)pyridin-2-yl]-L-alanine], 10 to 50 nM.
On to `Cn1c(=O)n(-c2ccc(C[C@H](NC(=O)c3ccc(NS(=O)(=O)c4cc[n+]([O-])cc4)cc3F)C(=O)O)cc2)c(=O)c2cc[n+]([O-])cc21` [Example 179, (2S)-2-[[2-Fluoro-4-[(1-oxidopyridin-1-ium-4-yl)sulfonylamino]benzoyl]amino]-3-[4-(1-methyl-7-oxido-2,4-dioxo-pyrido[3,4-d]pyrimidin-7-ium-3-yl)phenyl]propanoic Acid], for which the IC50 is at most 10 nM.
`Cn1ccc(=O)n(-c2ccc(C[C@H](NC(=O)c3c(F)cc(NS(=O)(=O)c4ccc(-n5cccc5)cn4)cc3F)C(=O)O)cc2)c1=O` [Example 162, N-[2,6-Difluoro-4-({[5-(1H-pyrrol-1-yl)pyridin-2-yl]sulfonyl}amino)benzoyl]-4-(3-methyl-2,6-dioxo-3,6-dihydropyrimidin-1(2H)-yl)-L-phenylalanine]: the IC50 fell in the range of 10 to 50 nM.
Next, `Cn1ccc(=O)n(-c2ccc(C[C@H](NC(=O)c3c(F)cc(NS(=O)(=O)c4ccc(-c5ncccn5)cn4)cc3F)C(=O)O)nc2)c1=O` [Example 159, N-(2,6-Difluoro-4-{[(5-pyrimidin-2-yl-pyridin-2-yl)sulfonyl]amino}benzoyl)-3-[5-(3-methyl-2,6-dioxo-3,6-dihydropyrimidin-1(2H)-yl)pyridin-2-yl]-L-alanine]: 10 to 50 nM; `Cn1c(=O)n(-c2ccc(C[C@H](NC(=O)c3c(F)cc(NS(=O)(=O)c4ccc(C(=O)NC(C)(C)C)cc4)cc3F)C(=O)O)cc2)c(=O)c2ccncc21` [Example 168, N-{4-[({4-[(tert-Butylamino)carbonyl]phenyl}sulfonyl)amino]-2,6-difluorobenzoyl}-4-(1-methyl-2,4-dioxo-1,4-dihydropyrido[3,4-d]pyrimidin-3(2H)-yl)-L-phenylalanine]: at most 10 nM; `Cn1c(=O)n(-c2ccc(C[C@H](NC(=O)c3cc(F)c(NS(=O)(=O)c4ccc(-n5cncn5)cn4)cc3F)C(=O)O)nc2)c(=O)c2ccncc21` [Example 217, N-[2,5-Difluoro-4-({[5-(1H-1,2,4-triazol-1-yl)pyridin-2-yl]sulfonyl}amino)benzoyl]-3-[5-(1-methyl-2,4-dioxo-1,4-dihydropyrido[3,4-d]pyrimidin-3(2H)-yl)pyridin-2-yl]-L-alanine]: 10 to 50 nM.
With `Cn1c(=O)n(-c2ccc(C[C@H](NC(=O)c3cc(F)c(NS(=O)(=O)c4ccc(-c5ncccn5)cn4)cc3F)C(=O)O)nc2)c(=O)c2ccncc21` [Example 222, N-(2,5-Difluoro-4-{[(5-pyrimidin-2-ylpyridin-2-yl)sulfonyl]amino}benzoyl)-3-[5-(1-methyl-2,4-dioxo-1,4-dihydropyrido[3,4-d]pyrimidin-3(2H)-yl)pyridin-2-yl]-L-alanine] the figure was 50 to 200 nM; with `Cc1cn(C)c(=O)n(-c2ccc(C[C@H](NC(=O)c3ccc(NS(=O)(=O)c4ccc(C(=O)NC(C)(C)C)nc4)cc3F)C(=O)O)cc2)c1=O` [Example 175, N-{4-[({6-[(tert-Butylamino)carbonyl]pyridin-3-yl}sulfonyl)amino]-2-fluorobenzoyl}-4-(3,5-dimethyl-2,6-dioxo-3,6-dihydropyrimidin-1(2H)-yl)-L-phenylalanine], 10 to 50 nM.
Next, `CCC(CC)NC(=O)c1ccc(S(=O)(=O)Nc2cc(F)c(C(=O)N[C@@H](Cc3ccc(-n4c(=O)ccn(C)c4=O)cc3)C(=O)O)c(F)c2)cc1` [Example 170, N-(4-{[(4-{[(1-Ethylpropyl)amino]carbonyl}phenyl)sulfonyl]amino}-2,6-difluorobenzoyl)-4-(3-methyl-2,6-dioxo-3,6-dihydropyrimidin-1(2H)-yl)-L-phenylalanine]: at most 10 nM.
Turning to `Cn1c(=O)n(-c2ccc(C[C@H](NC(=O)c3cc(F)c(NS(=O)(=O)c4ccc(-c5cc(F)cc(F)c5)cc4)cc3F)C(=O)O)nc2)c(=O)c2ccncc21` [Example 235, N-(4-{[(3′,5′-Difluorobiphenyl-4-yl)sulfonyl]amino}-2,5-difluorobenzoyl)-3-[5-(1-methyl-2,4-dioxo-1,4-dihydropyrido[3,4-d]pyrimidin-3(2H)-yl)pyridin-2-yl]-L-alanine], the IC50 is above 200 nM.
